Results reported in patent US20230091047A1 (priority 2019, published 2023).

Tests used:
[1] = system: HBV (HepG2.117 cell line, inducibly HBV producing); experiment: Anti-HBV activity: intracellular HBV DNA by real-time PCR in HepG2.117 cells after 3 days of treatment; assay type: cell-based, hepatitis B virus; settings: Hepatitis B virus, HepG2.117, 72 h, HepG2.117 cells, intracellular HBV DNA by real-time PCR, 3 days of treatment, mean value; read-out: EC50 (μM, mean value)
Procedure, shortened: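 Inducible HBV-producing HepG2.117 line (Tet-off); 3-day exposure to serially diluted compound after induction; real-time PCR of intracellular viral DNA.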

[2] = in vitro; assay type: cell-based; settings: human, HepG2 or HepG2.117 cells, ATPlite, 3-days incubation (not marked with *), mean value
Procedure, shortened: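 Luminescent ATP quantitation served as the viability endpoint following a 3- or 4-day incubation with test compounds.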

Row | Structure (SMILES) | EC50 [1] | CC50 at 3 days [2]
1 | CNC(=O)c1ccc(-n2c(N[C@@H](C)c3ccc(OC(F)(F)F)cc3)nc3c(c2=O)C[C@@H](C)N(C(=O)c2ccc(Cl)c(Cl)c2)C3)cn1 [Compound C537] | 0.08 µM | > 50 µM
2 | CNC(=O)c1ccc(-n2c(NCc3nnn(C)c3C(F)(F)F)nc3c(c2=O)C[C@@H](C)N(C(=O)c2ccc(Cl)c(Cl)c2)C3)cc1 [Compound C539] | 5.47 µM | > 50 µM
3 | CNC(=O)c1ccc(-n2c(NC(C)Cn3cncn3)nc3c(c2=O)C[C@@H](C)N(C(=O)c2ccc(Cl)c(Cl)c2)C3)cc1 (stereo partly drawn) [Compound C540] | 15.8 µM | > 50 µM
4 | CNC(=O)c1ccc(-n2c(NCc3n[nH]c(C)n3)nc3c(c2=O)C[C@@H](C)N(C(=O)c2ccc(Cl)c(Cl)c2)C3)cc1 [Compound C541] | > 25 µM | > 50 µM
5 | CNC(=O)c1ccc(-n2c(NCc3nncn3-c3ccccc3)nc3c(c2=O)C[C@@H](C)N(C(=O)c2ccc(Cl)c(Cl)c2)C3)cc1 [Compound C542] | 12.9 µM | > 50 µM
6 | CNC(=O)c1ccc(-n2c(NCc3cccc(-n4cncn4)c3)nc3c(c2=O)C[C@@H](C)N(C(=O)c2ccc(Cl)c(Cl)c2)C3)cc1 [Compound C543] | 7.02 µM | > 50 µM
7 | CNC(=O)c1ccc(-n2c(N(C)Cc3ccc4cnccc4c3)nc3c(c2=O)C[C@@H](C)N(C(=O)c2ccc(Cl)c(Cl)c2)C3)cc1 [Compound C544] | 0.6 µM | 26.7 µM
8 | CNC(=O)c1ccc(-n2c(NCc3nnc(C(C)C)[nH]3)nc3c(c2=O)C[C@@H](C)N(C(=O)c2ccc(Cl)c(Cl)c2)C3)cc1 [Compound C545] | > 25 µM | > 50 µM
9 | CNC(=O)c1ccc(-n2c(NCC3CC3C)nc3c(c2=O)C[C@@H](C)N(C(=O)c2ccc(Cl)c(Cl)c2)C3)cc1 (stereo partly drawn) [Compound C547] | 0.97 µM | 47.2 µM
10 | CNC(=O)c1ccc(-n2c(NC(C)Cc3c[nH]c4ccc(F)cc34)nc3c(c2=O)C[C@@H](C)N(C(=O)c2ccc(Cl)c(Cl)c2)C3)cc1 (stereo partly drawn) [Compound C548] | 0.58 µM | 10.3 µM
11 | CNC(=O)c1ccc(-n2c(NC3COC(C4CC4)C3)nc3c(c2=O)C[C@@H](C)N(C(=O)c2ccc(Cl)c(Cl)c2)C3)cc1 (stereo partly drawn) [Compound C549] | 1.22 µM | > 50 µM
12 | CNC(=O)c1ccc(-n2c(NC(C)c3cccs3)nc3c(c2=O)C[C@@H](C)N(C(=O)c2ccc(Cl)c(Cl)c2)C3)cc1 (stereo partly drawn) [Compound C550] | 0.54 µM | 30.2 µM
13 | CNC(=O)c1ccc(-n2c(NCC(C)c3nncn3C)nc3c(c2=O)C[C@@H](C)N(C(=O)c2ccc(Cl)c(Cl)c2)C3)cc1 (stereo partly drawn) [Compound C551] | > 25 µM | > 50 µM
14 | CNC(=O)c1ccc(-n2c(NCc3nnn(C)c3C(F)F)nc3c(c2=O)C[C@@H](C)N(C(=O)c2ccc(Cl)c(Cl)c2)C3)cc1 [Compound C552] | > 25 µM | > 50 µM
15 | CNC(=O)c1ccc(-n2c(NCc3ncnn3-c3ccccc3)nc3c(c2=O)C[C@@H](C)N(C(=O)c2ccc(Cl)c(Cl)c2)C3)cc1 [Compound C553] | 23.7 µM | > 50 µM
16 | CNC(=O)c1ccc(-n2c(NCc3cc(C(F)F)no3)nc3c(c2=O)C[C@@H](C)N(C(=O)c2ccc(Cl)c(Cl)c2)C3)cc1 [Compound C554] | 1.77 µM | > 50 µM
17 | CNC(=O)c1ccc(-n2c(NCc3ccc(-n4cncn4)cc3)nc3c(c2=O)C[C@@H](C)N(C(=O)c2ccc(Cl)c(Cl)c2)C3)cc1 [Compound C555] | 1.33 µM | > 50 µM
18 | CNC(=O)c1ccc(-n2c(NCc3ncn(-c4ccccc4)n3)nc3c(c2=O)C[C@@H](C)N(C(=O)c2ccc(Cl)c(Cl)c2)C3)cc1 [Compound C556] | 0.57 µM | 25.6 µM
19 | CNC(=O)c1ccc(-n2c(NCc3cnnn3C)nc3c(c2=O)C[C@@H](C)N(C(=O)c2ccc(Cl)c(Cl)c2)C3)cc1 [Compound C557] | > 25 µM | > 50 µM
20 | CNC(=O)c1ccc(-n2c(N3CCCOC(C)C3)nc3c(c2=O)C[C@@H](C)N(C(=O)c2ccc(Cl)c(Cl)c2)C3)cc1 (stereo partly drawn) [Compound C558] | 0.46 µM | > 50 µM
21 | CNC(=O)c1ccc(-n2c(NC3CCOC3)nc3c(c2=O)C[C@@H](C)N(C(=O)c2ccc(Cl)c(Cl)c2)C3)cc1 (stereo partly drawn) [Compound C559] | 0.6 µM | > 50 µM
22 | CNC(=O)c1ccc(-n2c(NCc3cnn(C)n3)nc3c(c2=O)C[C@@H](C)N(C(=O)c2ccc(Cl)c(Cl)c2)C3)cc1 [Compound C560] | 2.59 µM | > 50 µM
23 | CNC(=O)c1ccc(-n2c(NCc3ncnn3C)nc3c(c2=O)C[C@@H](C)N(C(=O)c2ccc(Cl)c(Cl)c2)C3)cc1 [Compound C561] | > 25 µM | > 50 µM
24 | CNC(=O)c1ccc(-n2c(N(C)Cc3cnc4ccc(Cl)cn34)nc3c(c2=O)C[C@@H](C)N(C(=O)c2ccc(Cl)c(Cl)c2)C3)cc1 [Compound C562] | 2.87 µM | 26.8 µM

Row | Structure (SMILES) | EC50 [1] | CC50 at 3 days [2]
25 | CNC(=O)c1ccc(-n2c(NC(C)C)nc3c(c2=O)C[C@@H](C)N(C(=O)c2ccc(Br)cc2)C3)cc1 [Compound C563] | 0.26 µM | > 50 µM
26 | CNC(=O)c1ccc(-n2c(NC(C)C)nc3c(c2=O)C[C@@H](C)N(C(=O)c2cc4c(C)cc(F)cc4[nH]2)C3)cc1 [Compound C564] | 0.02 µM | 21.7 µM
27 | CNC(=O)c1ccc(-n2c(NC(C)C)nc3c(c2=O)C[C@@H](C)N(C(=O)c2ccc(Br)cc2Cl)C3)cc1 [Compound C565] | 0.68 µM | > 50 µM
28 | CNC(=O)c1ccc(-n2c(NC(C)C)nc3c(c2=O)C[C@@H](C)N(C(=O)c2cc4c(Cl)c(Cl)ccc4[nH]2)C3)cc1 [Compound C566] | 0.03 µM | 6.8 µM
29 | CNC(=O)c1ccc(-n2c(NC(C)C)nc3c(c2=O)C[C@@H](C)N(C(=O)c2cc4c(C)cc(OC)cc4[nH]2)C3)cc1 [Compound C567] | 0.67 µM | 36.5 µM
30 | CNC(=O)c1ccc(-n2c(NC(C)C)nc3c(c2=O)C[C@@H](C)N(C(=O)c2cc4ccc(Br)c(F)c4[nH]2)C3)cc1 [Compound C568] | 0.02 µM | 25.8 µM
31 | CNC(=O)c1ccc(-n2c(NC(C)C)nc3c(c2=O)C[C@@H](C)N(C(=O)c2cc4c(Br)cccc4[nH]2)C3)cc1 [Compound C569] | 0.01 µM | 21.4 µM
32 | CNC(=O)c1ccc(-n2c(NC(C)C)nc3c(c2=O)C[C@@H](C)N(C(=O)c2cc4c(C)c(F)ccc4[nH]2)C3)cc1 [Compound C570] | 0.01 µM | 24.5 µM
33 | CNC(=O)c1ccc(-n2c(NC(C)C)nc3c(c2=O)C[C@@H](C)N(C(=O)c2ccc(OC(F)F)c(Br)c2)C3)cc1 [Compound C571] | 0.09 µM | > 50 µM
34 | CNC(=O)c1ccc(-n2c(NC(C)C)nc3c(c2=O)C[C@@H](C)N(C(=O)c2cc4c(Br)c(F)ccc4[nH]2)C3)cc1 [Compound C572] | 0.01 µM | 14.6 µM
35 | CNC(=O)c1ccc(-n2c(NC(C)C)nc3c(c2=O)C[C@@H](C)N(C(=O)c2ccc(C(C)(F)F)cc2)C3)cc1 [Compound C573] | 0.32 µM | > 50 µM
36 | CNC(=O)c1ccc(-n2c(NC(C)C)nc3c(c2=O)C[C@@H](C)N(C(=O)c2cc(F)c(Br)cc2F)C3)cc1 [Compound C574] | 0.73 µM | > 50 µM
37 | CNC(=O)c1ccc(-n2c(NC(C)C)nc3c(c2=O)C[C@@H](C)N(C(=O)c2ccc(Br)c(OC(C)C)c2)C3)cc1 [Compound C575] | 0.55 µM | > 50 µM
38 | CNC(=O)c1ccc(-n2c(NC(C)C)nc3c(c2=O)C[C@@H](C)N(C(=O)c2cc4c(Br)cc(Cl)cc4[nH]2)C3)cc1 [Compound C576] | 0.05 µM | > 50 µM
39 | CNC(=O)c1ccc(-n2c(NC(C)C)nc3c(c2=O)C[C@@H](C)N(C(=O)c2cc(Cl)c(Br)cc2F)C3)cc1 [Compound C577] | 0.17 µM | > 50 µM
40 | CNC(=O)c1ccc(-n2c(NC(C)C)nc3c(c2=O)C[C@@H](C)N(C(=O)c2cc(C)c(C)c(Br)c2)C3)cc1 [Compound C578] | 0.11 µM | 33.2 µM
41 | CNC(=O)c1ccc(-n2c(NC(C)C)nc3c(c2=O)C[C@@H](C)N(C(=O)c2cc4cc(Cl)ccc4s2)C3)cc1 [Compound C579] | 0.12 µM | > 50 µM
42 | CNC(=O)c1ccc(-n2c(NC(C)C)nc3c(c2=O)C[C@@H](C)N(C(=O)c2ccc(Br)c(Cl)c2F)C3)cc1 [Compound C580] | 0.08 µM | > 50 µM
43 | CNC(=O)c1ccc(-n2c(NC(C)C)nc3c(c2=O)C[C@@H](C)N(C(=O)c2ccc(Br)c(F)c2C)C3)cc1 [Compound C581] | 0.15 µM | > 50 µM
44 | CNC(=O)c1ccc(-n2c(NC(C)C)nc3c(c2=O)C[C@@H](C)N(C(=O)c2ccc(Cl)cc2Cl)C3)cc1 [Compound C582] | 2.34 µM | > 50 µM
45 | CNC(=O)c1ccc(-n2c(NC(C)C)nc3c(c2=O)C[C@@H](C)N(C(=O)c2cc4cc(Br)ccc4s2)C3)cc1 [Compound C583] | 0.21 µM | > 50 µM
46 | CNC(=O)c1ccc(-n2c(NC(C)C)nc3c(c2=O)C[C@@H](C)N(C(=O)c2ccc(Br)c(C)c2F)C3)cc1 [Compound C584] | 0.1 µM | > 50 µM
47 | CNC(=O)c1ccc(-n2c(NC(C)C)nc3c(c2=O)C[C@@H](C)N(C(=O)c2ccc(C)c(C(F)(F)F)c2)C3)cc1 [Compound C585] | 0.1 µM | > 50 µM
48 | CNC(=O)c1ccc(-n2c(NC(C)C)nc3c(c2=O)C[C@@H](C)N(C(=O)c2ccc(C)c(Br)c2)C3)cc1 [Compound C586] | 0.21 µM | > 50 µM
